Starred links: 1 amine or outer side, 2 acyl side, 3 side chain; linkers in the order of their positions; H or OH if unused. Non-standard residues stand in square brackets, D forms with d. Residues, ends and D or L forms follow the SMILES beside them. ξ: configuration not given here. *: point of attachment. NHCH2(1,3-C6H4)CH2CO = O=C(Cc1cccc(CN[*:1])c1)[*:2]; ξF2Pmp = NC(Cc1ccc(C(F)(F)P(=O)(O)O)cc1)C(=O)O; Benzoyl(3-Br,4-Me) = Cc1ccc(C(=O)*)cc1Br; ξPro(4R-OH) = O=C(O)C1C[C@@H](O)CN1; X2 = Cc1ncsc1-c1ccc([C@H](C)N*)cc1; Tle = CC(C)(C)[C@H](N)C(=O)O; X1 = COc1ccc(CC(=O)*)cc1O
What was measured:
[1] = target: Protein cereblon/Tyrosine-protein phosphatase non-receptor type 2 (Homo sapiens, UniProt P17706+Q96SW2); experiment: PROTAC activity at PTPN2/CRBN in HEK293 cells assessed as protein degradation measured for 48 hrs by Western blot analysis; assay type: cell-based
[2] = target: Protein cereblon/Tyrosine-protein phosphatase non-receptor type 1 (Homo sapiens, UniProt P18031+Q96SW2); experiment: PROTAC activity at PTP1B/CRBN in HEK293 cells assessed as protein degradation measured for 48 hrs by Western blot analysis; assay type: cell-based
Homo sapiens = species: Homo sapiens; experiment: Selectivity index, ratio of DC50 for PROTAC activity at PTP1B/CRBN in HEK293 cells to DC50 for PROTAC activity at PTPN2/CRBN in HEK293 cells; assay type: cell-based
[3] = target: T1, Tyrosine-protein phosphatase non-receptor type 2 (Homo sapiens, UniProt P17706)
T1 sequence (P17706 whole entry): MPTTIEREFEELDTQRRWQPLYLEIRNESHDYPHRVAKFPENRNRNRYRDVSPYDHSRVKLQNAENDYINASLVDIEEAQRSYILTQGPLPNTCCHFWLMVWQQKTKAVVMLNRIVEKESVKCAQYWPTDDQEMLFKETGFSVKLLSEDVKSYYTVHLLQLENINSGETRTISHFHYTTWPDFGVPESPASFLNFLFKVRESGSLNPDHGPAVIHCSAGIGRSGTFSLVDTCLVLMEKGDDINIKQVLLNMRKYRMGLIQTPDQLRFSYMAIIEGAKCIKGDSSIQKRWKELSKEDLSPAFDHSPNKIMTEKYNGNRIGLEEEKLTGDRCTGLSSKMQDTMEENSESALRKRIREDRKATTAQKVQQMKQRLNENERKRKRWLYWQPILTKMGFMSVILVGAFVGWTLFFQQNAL
Description: Inhibition of full-length human recombinant PTPN2 incubated for 20 mins by mobile shift assay

[4] = target: T1, Tyrosine-protein phosphatase non-receptor type 2; remark: listed apart in the source
Description: Inhibition of human PTPN2 extracted from Escherichia coli BL21 (DE3) by fluorescence based analysis

[5] = Inhibition of PTP1B/PTPN2 (unknown origin) in mouse B16 cells; assay type: cell-based, Homo sapiens
B16 = experiment: Antiproliferative activity against mouse B16 cells; assay type: functional, cell-based
[6] = target: T1, Tyrosine-protein phosphatase non-receptor type 2; experiment: Inhibition of PTPN2 (unknown origin)
[7] = target: T2, Tyrosine-protein phosphatase non-receptor type 1 (Homo sapiens, UniProt P18031); experiment: Inhibition of PTP1B (unknown origin)
T2 sequence (P18031 whole entry): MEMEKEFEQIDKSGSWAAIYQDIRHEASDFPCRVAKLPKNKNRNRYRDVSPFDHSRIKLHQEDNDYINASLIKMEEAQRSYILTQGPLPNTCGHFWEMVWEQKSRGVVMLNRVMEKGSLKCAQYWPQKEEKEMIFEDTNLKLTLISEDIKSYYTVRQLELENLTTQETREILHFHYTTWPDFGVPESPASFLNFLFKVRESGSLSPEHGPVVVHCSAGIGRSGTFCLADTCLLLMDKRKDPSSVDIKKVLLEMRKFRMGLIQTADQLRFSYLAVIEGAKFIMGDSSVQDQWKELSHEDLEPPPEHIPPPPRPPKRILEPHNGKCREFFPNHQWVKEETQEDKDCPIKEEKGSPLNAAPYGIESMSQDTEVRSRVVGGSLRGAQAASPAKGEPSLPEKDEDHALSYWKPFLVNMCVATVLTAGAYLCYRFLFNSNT

Sequence of Protein cereblon/Tyrosine-protein phosphatase non-receptor type 2 (Q96SW2 whole entry, one chain of several): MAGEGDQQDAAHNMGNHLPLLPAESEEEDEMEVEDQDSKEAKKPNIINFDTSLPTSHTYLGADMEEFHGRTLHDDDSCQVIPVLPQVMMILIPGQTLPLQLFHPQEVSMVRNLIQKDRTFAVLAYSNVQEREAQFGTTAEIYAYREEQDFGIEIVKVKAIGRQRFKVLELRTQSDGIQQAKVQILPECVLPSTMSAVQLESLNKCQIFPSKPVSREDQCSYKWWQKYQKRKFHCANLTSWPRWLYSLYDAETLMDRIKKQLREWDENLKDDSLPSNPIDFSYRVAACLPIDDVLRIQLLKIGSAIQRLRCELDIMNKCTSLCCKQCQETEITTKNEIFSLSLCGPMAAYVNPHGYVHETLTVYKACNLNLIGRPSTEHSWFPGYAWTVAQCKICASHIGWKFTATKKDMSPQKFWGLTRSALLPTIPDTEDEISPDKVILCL
Sequence of Protein cereblon/Tyrosine-protein phosphatase non-receptor type 1 (Q96SW2 whole entry, one chain of several): as above

With Cc1ncsc1-c1ccc(C(C)CC(=O)[C@H]2C[C@H](O)CN2C(=O)[C@@H](NC(=O)CCCCCNC(=O)n2cc(-c3ccc4cc(O)c(N5CC(=O)NS5(=O)=O)c(F)c4c3)cn2)C(C)(C)C)cc1 (some centres undefined) as the compound, how does the DC50 [1] read?
Its DC50 is 0.217 µM.

What about the DC50 [2] of the same compound?
The DC50 was 13.1 µM.

What about the Selectivity Index (Homo sapiens) of the same compound?
Its Selectivity Index is > 60.

Which IC50 [3] does the source give for CC(C)CCN[C@@H]1CCc2cc(O)c(N3CC(=O)NS3(=O)=O)c(F)c2C1 [OSUNPROTAFIB] here?
The IC50 was 0.0018 µM.

And the IC50 [4]?
Its IC50 is 0.0018 µM.

And the EC50 [5]?
The EC50 was 0.18 µM.

And the IC50 (B16)?
Its IC50 is 0.064 µM.

What does the source list for CCc1ccc(C(=O)NCCCC[C@H](NC(=O)[C@H](Cc2ccc(C(F)(F)P(=O)(O)O)cc2)NC(=O)[C@H](Cc2ccccc2)NC(=O)O[C@H]2C[C@@H](C)CC[C@@H]2C(C)C)C(=O)NCCOCCC(=O)Nc2cccc3c2CN(C2CCC(=O)NC2=O)C3=O)cc1 (some centres undefined)?
DC50 [1]: 0.0358 µM; Selectivity Index (Homo sapiens): > 110

For CC1(C)C[C@H](Nc2cccc(-c3sc(C(=O)O)c(OCC(=O)O)c3Cl)c2)CCN1S(=O)(=O)Cc1cccc(NC(=O)N2CCC(c3ccc4c5c(cccc35)C(=O)N4[C@@H]3CCC(=O)NC3=O)CC2)c1, which DC50 [1] is on record?
The DC50 was < 0.1 µM.

For CC[C@@H]1CCN(CCc2cc(O)c(N3CC(=O)NS3(=O)=O)c(F)c2)C1, which IC50 (B16) is on record?
Its IC50 is 0.13 µM.

For CCc1cc(C[C@H](NC(C)=O)C(=O)NCCCCOc2cccc(O)c2C(=O)OC)ccc1N(C(=O)C(=O)O)c1ccccc1C(=O)O, which IC50 [6] is on record?
Its IC50 is 0.065 µM.

Which results are given for O=C1CN(c2c(O)cc3ccc(NCC4CC4)cc3c2F)S(=O)(=O)N1?
IC50 [3]: 0.0039 µM; IC50 [4]: 0.0039 µM; EC50 [5]: 2.65 µM

With CC(C)CCNC1CNc2cc(O)c(N3CC(=O)NS3(=O)=O)c(F)c2C1 (centres undefined) as the compound, how does the IC50 (B16) read?
The IC50 was 1.4 µM.

With CC(C)CCN[C@@H]1C[C@H]2C[C@@H]1c1c2cc(O)c(N2CC(=O)NS2(=O)=O)c1F as the compound, how does the IC50 (B16) read?
Its IC50 is 7.82 µM.

Which IC50 [6] does the source give for O=C1CN(c2c(O)cc3c(c2F)C[C@H](NCCC(F)F)N3)S(=O)(=O)N1 here?
Its IC50 is 0.01 µM.

And the IC50 [7]?
The IC50 was 0.01 µM.

And the IC50 (B16)?
Its IC50 is 0.7 µM.

What does the source list for O=C1CN(c2c(O)cc3c(c2F)C[C@H](NCCCC(F)F)CS3)S(=O)(=O)N1?
IC50 [6]: < 0.01 µM; IC50 [7]: < 0.01 µM; IC50 (B16): 0.16 µM

Which DC50 [1] does the source give for COc1ccc(CC(=O)N[C@@H](Cc2ccccc2)C(=O)NC(Cc2ccc(C(F)(F)P(=O)(O)O)cc2)C(=O)N[C@@H](CCCCNC(=O)c2ccc(C)c(Br)c2)C(=O)NCc2cccc(CC(=O)N[C@H](C(=O)N3C[C@H](O)CC3C(=O)N[C@@H](C)c3ccc(-c4scnc4C)cc3)C(C)(C)C)c2)cc1O (stereo partly drawn) (X1-F[ξF2Pmp]K(Benzoyl(3-Br,4-Me))[NHCH2(1,3-C6H4)CH2CO][Tle][ξPro(4R-OH)]-X2) here?
Its DC50 is 0.007 µM.

What about the DC50 [2] of the same compound?
The DC50 was 0.0148 µM.

And the Selectivity Index (Homo sapiens)?
Its Selectivity Index is 2.1.

With O=C1CN(c2c(O)cc(NC(=O)NC3CCCCC3)cc2F)S(=O)(=O)N1 as the compound, how does the IC50 [6] read?
The IC50 was < 0.005 µM.

What about the IC50 (B16) of the same compound?
Its IC50 is < 5 µM.

With N#Cc1ccc2cc(Br)c(C(F)(F)P(=O)(O)O)cc2c1 as the compound, how does the IC50 [6] read?
Its IC50 is 0.0071 µM.

With Cn1c(=O)n(C2CCC(=O)NC2=O)c2ccc(-c3ccc(CC(=O)Nc4ccc5c(F)c(N6CC(=O)NS6(=O)=O)c(O)cc5c4)cc3)cc21 (centres undefined) as the compound, how does the DC50 [1] read?
The DC50 was 0.01 µM.

With CC1(C)CCC[C@H](NCc2cc(O)c(N3CC(=O)NS3(=O)=O)c(F)c2)C1 as the compound, how does the IC50 (B16) read?
Its IC50 is 0.77 µM.

With COc1cc(CC(=O)NC(Cc2ccccc2)C(=O)NC(Cc2ccc(C(F)(F)P(=O)(O)O)cc2)C(=O)N[C@@H](CCCCNC(=O)c2ccc(C)c(Br)c2)C(N)=O)ccc1O (some centres undefined) as the compound, how does the IC50 [7] read?
The IC50 was 0.12 µM.

What does the source list for CC1CCN=C(Nc2cc(O)c(N3CC(=O)NS3(=O)=O)c(F)c2)N1 (centres undefined)?
IC50 [6]: 0.01 µM; IC50 (B16): 5 µM
